Assay results from US20080176909A1, “Methods for prevention and treatment of arteriosclerosis, hypertension and restenosis” (DAIICHI SANKYO COMPANY, LIMITED, priority 2003, published 2008).

How the values were obtained:
[1] = test system: apolipoprotein E (ApoE) knock out mice; assay: Antihypertensive effects, systolic blood pressure on high fatty diet; format: in vivo; settings: for Systolic blood pressures: 3 mg/kg of each agent oral for 24 weeks, measured 21 to 24 hours after administration in the 23rd week, mean±S.E.; for hypotensive effects: 3 mg/kg of each agent, Dunnett's multiple comparison test
Method: Male apolipoprotein E (ApoE) knock out mice aged 12 weeks were divided into 4 groups (15 mice per group) as following: control group (0.5% carboxymethylcellulose (CMC) solution administered group), olmesartan medoxomil (3 mg/kg) administered group, azelnidipine (3 mg/kg) administered group, and olmesartan medoxomil (3 mg/kg) plus azelnidipine (3 mg/kg) administered group. Either test substance or vehicle (0.5% CMC solution) was orally administered to animals for 24 successive weeks. A high fatty diet (containing 0.15% cholesterol and 15% unsalted butter) was given to all mice in all groups following the start of test agent administration (12 weeks of age). The systolic blood pressure of all mice was measured by a non-preheating type blood pressure monitor (BP MONITOR FOR RATS & MICE, Model MK-2000, Muromachi Kikai Co., Ltd.) at 21 to 24 hours after drug administration in the 23rd week. The results are shown in Table 3 (values in the table indicate mean±S.E.).

[2] = test system: cuff-induced vascular damage model of wild-type mice (femoral artery); assay: Cuff-induced vascular injury model: DNA synthesis (BrdU index) and neointima formation; format: in vivo; settings: for effects on blood pressure: azelnidipine 0.1 to 1.0 mg/kg/day, olmesartan 0.5 to 3.0 mg/kg/day
Method: C57BL/6 mice aged 10 weeks were used. In a part of this study, AT1a receptor gene knock out (AT1aKO) mice were also used. Inflammatory vascular damage was induced in mice by loosely placing a polyethylene tube which was cut longitudinally to open the tube, around the femoral artery of mice. In the damaged artery, the following observations were determined. The usefulness of this model of vascular damage to analyze vascular remodeling has been previously reported (Physiol. Genomics., 2, pp. 13-30, 2000; Circulation, 104, pp. 2716-2721, 2001; Circulation, 106, pp. 847-853, 2002).
A paraffin-embedded section of the damaged artery was prepared 14 days after cuff placement, Elastica van Gieson staining was carried out, and the cross-sectional area of the neointima and tunica media of the blood vessels was determined by image analysis software. For quantification of DNA synthesis, bromodeoxyuridine (BrdU) was injected into the mice 7 days after cuff placement and BrdU index calculated from incorporation into the nuclei of the cells was calculated.
(§1) (3) Olmesartan, an AT1 receptor blocker, was intraperitoneally injected into wild-type mice by an osmotic minipump, and the dose-dependency of olmesartan was investigated as described in (2). Oral administration of azelnidipine to the wild-type mice was started after cuff placement, and dose-dependency of azelnidipine was investigated as described in (2). (4) Both olmesartan and azelnidipine were simultaneously administered to wild-type mice, and the effects of co-administration of olmesartan and azelnidipine were compared with those of administration of either olmesartan or azelnidipine alone as described in (2). Effects of olmesartan and azelnidipine were investigated at effective doses of either olmesartan or azelnidipine alone and at insufficient doses to elicit significant effects by either olmesartan or azelnidipine alone, so as to determine synergistic effects of these two agents. (5) By using cultured rat vascular smooth muscle cells, the effects of co-treatment of olmesartan and azelnidipine on facilitation of DNA synthesis following stimulation by angiotensin II (determined by incorporation of [^3H]thymidine) were investigated.

[3] = test system: cultured rat vascular smooth muscle cells; assay: DNA synthesis ([3H]thymidine incorporation) following stimulation by angiotensin II; format: cell-based; settings: for DNA synthesis of cultured rat vascular smooth muscle cells: low doses, alone or co-administered
From the text: as §1

[4] = low doses: 0.1 mg/kg/day azelnidipine, 0.5 mg/kg/day olmesartan, alone or at the same time

| SMILES | Systolic blood pressures [1] | hypotensive effects [1] | effects on blood pressure [2] | increase in DNA synthesis of vascular smooth muscle cells (BrdU index) ([2]; dose range: azelnidipine 0.1 to 1.0 mg/kg/day oral, olmesartan 0.5 to 3.0 mg/kg/day intraperitoneal osmotic minipump, 7 days after cuff placement) | potentiation of neointima formation in the blood vessels ([2]; dose range: azelnidipine 0.1 to 1.0 mg/kg/day oral, olmesartan 0.5 to 3.0 mg/kg/day intraperitoneal osmotic minipump, 14 days after cuff placement) | increase in DNA synthesis of vascular smooth muscle cells (BrdU index) [2, 4] | potentiation of neointima formation in the blood vessels [2, 4] | facilitation of DNA synthesis following stimulation by angiotensin II ([3]; concentration dependence, [3H]thymidine incorporation) | DNA synthesis of cultured rat vascular smooth muscle cells [3] |
| --- | --- | --- | --- | --- | --- | --- | --- | --- | --- |
| CC1=C(C(=O)OC(C)C)C(c2cccc([N+](=O)[O-])c2)C(C(=O)OC2CN(C(c3ccccc3)c3ccccc3)C2)=C(N)N1 (racemic) [Azelnidipine, (±)-2-amino-1,4-dihydro-6-methyl-4-(3-nitrophenyl)-3,5-pyridine-dicarboxylate-3-(1-diphenylmethylazetidin-3-yl)ester 5-isopropylester] | 127 ± 4 mmHg | did not elicit any significant effects | without any effects on blood pressure | inhibited by azelnidipine in a dose-dependent manner | inhibited by azelnidipine in a dose-dependent manner | did not elicit any significant effects | did not elicit any significant effects | suppressed by administration of azelnidipine in a concentration-dependent manner | insufficient to elicit any effects alone |
| CCCc1nc(C(C)(C)O)c(C(=O)OCc2oc(=O)oc2C)n1Cc1ccc(-c2ccccc2-c2nnn[nH]2)cc1 [Olmesartan medoxomil, (5-methyl-2-oxo-1,3-dioxolen-4-yl)methyl 4-(1-hydroxy-1-methylethyl)-2-propyl-1-[[2′-(1H-tetrazol-5-yl)biphenyl-4-yl]methyl]imidazol-5-carboxylate] | 121 ± 4 mmHg | did not elicit any significant effects | without any effects on blood pressure |  |  | did not elicit any significant effects | did not elicit any significant effects |  | insufficient to elicit any effects alone |
